Reference: a compilation of properties of binary mixtures (doi:10.3866/pku.whxb202001015)

Experiment: xn = mol fraction of the nth substance listed
Conditions: 293.15 K, 101.3 kPa

CC(=O)[O-].Cn1cc[nH+]c1 + CCO
Conditions | electrical conductivity [S/m]
x2 = 0.0616 | 0.449
x2 = 0.0975 | 0.527
x2 = 0.2701 | 0.821
x2 = 0.3985 | 1.33
x2 = 0.4978 | 1.7
x2 = 0.6604 | 2.27
x2 = 0.7397 | 2.34
x2 = 0.7865 | 1.92
x2 = 0.8291 | 1.52
x2 = 0.8486 | 1.31
x2 = 0.9522 | 0.312
x2 = 0.9648 | 0.199
x2 = 0.9725 | 0.139

CC(=O)[O-].Cn1cc[nH+]c1 + O
Conditions | electrical conductivity [S/m]
x2 = 0 | 0.326
x2 = 0.2845 | 2.06
x2 = 0.4277 | 3.44
x2 = 0.5098 | 4.31
x2 = 0.6959 | 6.95
x2 = 0.8691 | 9.7
x2 = 0.8823 | 8.7
x2 = 0.9207 | 5.18
x2 = 0.9425 | 2.9
x2 = 0.9559 | 1.7
x2 = 0.9677 | 0.849
